*1 amine or outer side, *2 acyl side, *3 side chain or, on linkers, in order; H or OH if unused. [ ]: non-standard residue; d: D form. PEG (Jeffamine) = not defined here; Suc = O=C(CCC(=O)[*:2])[*:1]
Assays:
[1] = test system: dystrophic muscles of the mdx mouse; experiment: Intramuscular injection into dystrophic muscle of mdx mice, tetanic force; type: in vivo; details: i.m. two per week for three weeks
Method: Greater increases, of up to around 35% (FIGS. 3A, 3B), were recorded for intramuscular injections (two per week for three weeks) in the dystrophic muscles of the mdx mouse, which has the same type of mutation as that in human Duchenne muscular dystrophy.

[2] = test system: infarcted ovine heart; experiment: Ovine myocardial infarction, intracoronary injection, ejection fraction by echocardiography; type: in vivo; details: ovine MI; intracoronary injection 15 minutes after MI; ejection fraction day 6 vs day 1
Source text: A myocardial infarction (MI) was induced in ovine hearts by catheterising a marginal branch of the circumflex coronary artery and injecting a small bolus of microspheres to induce localised ischemia. […] As a control, mature liver-type IGF-I was used.

[3] = test system: normal lower limb (quadriceps) primary cultures; experiment: Desmin positive cell proliferation, normal lower limb (quadriceps) primary cultures; type: cell-based, human; details: for desmin positive cells as percentage of total cells: peptide alone, 10 ng/ml, mean±s.d.
Source text: Human primary muscle cell cultures were isolated as previously described [Lewis et al., 2000; Sinanan et al., 2004]. Briefly, following informed consent, craniofacial (masseter) muscle biopsies were obtained from healthy adult and CMD patients during elective surgery at the Eastman and Middlesex Hospitals, London, UK. Human lower limb (vastus lateralis) muscle samples were obtained from consenting, adult healthy, FSHD and ALS patients by needle biopsy under local anaesthesia at the Royal Free Hospital, London, UK. Biopsies were pooled from several patients with the same disorder to obtain sufficient cell numbers in the primary cultures. These were washed with antibiotic (penicillin, 100 U/ml; streptomycin, 100 μg/ml; fungizone, 2.5 μg/ml; Invitrogen) supplemented DMEM (high glucose; Invitrogen), scissor-minced and tissue fragments plated into 0.2% gelatin-coated (Sigma-Aldrich) T150 cm^2 culture flasks (Helena Biosciences). Explant cultures were incubated in serum-containing Growth Media (sGM), composed of DMEM, 20% FCS (PAA Laboratories), penicillin (100 U/ml) and streptomycin ([…]) (Invitrogen), and maintained at 37° C. in humidified 95% air with 5% CO2. The first wave of migration of mononuclear cells from the explant was designated the […]-wave and this population was used throughout this study. Migratory human muscle cell were enzymatically harvested using trypsin-EDTA (Invitrogen) and subcultured in sGM until 70-80% confluency. Passage number x (Px), was defined as the xth sequential harvest of subconfluent cells. All experiments were performed using P3-5 cohorts. […]
(§1) At the appropriate time-points, cells were fixed with methanol for 10 min (−20° C.), followed by detergent permeabilization with 0.5% Triton-X100 for 10-15 min. […] Cell-associated fluorescence and morphology, were visualized by epi-fluorescence and Leica Modulation Contrast (LMC) microscopy respectively, using an inverted Leica DMIRB microscope equipped with Leica FW4000 image processing software. For the proliferation assay, all blue and green fluorescent positive cells were counted in a field. […]

[4] = test system: muscle cells from amyotrophic lateral sclerosis (ALS); experiment: Desmin positive cell proliferation, muscle cells from amyotrophic lateral sclerosis (ALS); type: cell-based, human; details: for desmin positive cells as percentage of total cells: peptide alone, 10 ng/ml, mean±s.d.
Source text: Human primary muscle cell cultures were isolated as previously described [Lewis et al., 2000; Sinanan et al., 2004]. Briefly, following informed consent, craniofacial (masseter) muscle biopsies were obtained from healthy adult and CMD patients during elective surgery at the Eastman and Middlesex Hospitals, London, UK. Human lower limb (vastus lateralis) muscle samples were obtained from consenting, adult healthy, FSHD and ALS patients by needle biopsy under local anaesthesia at the Royal Free Hospital, London, UK. Biopsies were pooled from several patients with the same disorder to obtain sufficient cell numbers in the primary cultures. These were washed with antibiotic (penicillin, 100 U/ml; streptomycin, 100 μg/ml; fungizone, 2.5 μg/ml; Invitrogen) supplemented DMEM (high glucose; Invitrogen), scissor-minced and tissue fragments plated into 0.2% gelatin-coated (Sigma-Aldrich) T150 cm^2 culture flasks (Helena Biosciences). Explant cultures were incubated in serum-containing Growth Media (sGM), composed of DMEM, 20% FCS (PAA Laboratories), penicillin (100 U/ml) and streptomycin ([…]) (Invitrogen), and maintained at 37° C. in humidified 95% air with 5% CO2. The first wave of migration of mononuclear cells from the explant was designated the […]-wave and this population was used throughout this study. Migratory human muscle cell were enzymatically harvested using trypsin-EDTA (Invitrogen) and subcultured in sGM until 70-80% confluency. Passage number x (Px), was defined as the xth sequential harvest of subconfluent cells. All experiments were performed using P3-5 cohorts. The expanded cells were then stored under cryogenic conditions until they were used in the experiments described below. At least 6 runs were made for each of the treatments used for each diseased muscle culture as well as for the two types of healthy muscle.
Assessment of the number of myogenic precursors was performed as described previously (Sinanan et al., 2004). Cells were re-plated on gelatin-coated (0.2%) 13 mm coverslips at an initial density of 4.5×10^3 cells cm^−2. […]
as §1

[5] = stabilised peptide in combination with IGF-I

Row | Substance | percentage change in tetanic force (increase in muscle strength) [1] | effect on percentage of viable myocardium and ejection fraction [2] | desmin positive cells as percentage of total cells [3] [%] | desmin positive cells as percentage of total cells [4] [%] | desmin positive cells as percentage of total cells, IGF-I added [3, 5] [%] | desmin positive cells as percentage of total cells, IGF-I added [4, 5] [%] | desmin positive cells as percentage of total cells, plus anti-IGF-I receptor antibody Ab-1 ([4]; stabilised peptide plus Ab-1) [%]
1 | IGF-I: IGF-I receptor binding domain encoded by Exons 3 and 4, common to all splice variants, approximately 70 amino acids [reference compound] | around 5% | much smaller effect | 47.1±3.5 | 4.7±1.4 |  |  | 
2 | stabilised peptide: SEQ ID NO: 15 with D-Arginine at positions 14 and 15, N-terminus attached to PEG (Jeffamine) via succinic acid bridge, amidated at C-terminus ({PEG (Jeffamine)-Suc}-YQPPSTNKNTKSQ[dR][dR]KGSTFEEHK-NH2; reading uncertain) | ≤ 35% | markedly increase the percentage of viable myocardium and the ejection fraction | 57.9±3.2 | 7.2±0.8 | 38.8±0.6 | 5.3±1.0 | 6.5±0.8
